In paper PMC2844520 (The AAPS journal, 2010):
Blank lines part the entries; values can stand above or below the molecule they belong to.

How the values were obtained:
[1] = target: T1, Monoacylglycerol lipase (MAGL) (Mus musculus, UniProt O35678); test: inhibition of 3H-2-OG hydrolysis in MAGL-transfected COS-7 lysate; assay type: biochemical
T1 sequence (O35678 1-303): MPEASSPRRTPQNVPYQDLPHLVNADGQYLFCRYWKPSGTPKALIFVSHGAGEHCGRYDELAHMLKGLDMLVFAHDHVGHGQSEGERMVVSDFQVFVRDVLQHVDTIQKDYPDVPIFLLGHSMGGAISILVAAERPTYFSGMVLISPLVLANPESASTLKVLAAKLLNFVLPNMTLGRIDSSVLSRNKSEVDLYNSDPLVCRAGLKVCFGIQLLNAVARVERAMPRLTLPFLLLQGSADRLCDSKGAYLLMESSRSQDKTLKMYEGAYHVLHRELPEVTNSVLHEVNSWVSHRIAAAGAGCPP

[2] = substrate: CCCCC/C=C\C/C=C\C/C=C\C/C=C\CCCC(=O)SCC(O)CO; assay type: biochemical, Mus musculus; settings: hydrolysis abolished by mutation of catalytic serine […] to alanine

- IC50 [1]: 45.7 nM
Molecule: CCCCC/C=C\C/C=C\C/C=C\C/C=C\CCCCN1C(=O)C=CC1=O [NAM, N-arachidonyl maleimide]

B1: Monoacylglycerol lipase (MAGL) (Mus musculus) (protein)
chain: T1 sequence (O35678 1-303)
- Km [2]: 67.9 µM
